Reference: PubChem BioAssay (NCI)
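Five concentrations, 48 hours, 96-well plates. GI50 is the concentration that inhibits growth by half. TGI marks complete inhibition of growth.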

Legend:
Assay in all cases: NCI tumour cell line growth inhibition, 48 h
BT-549 breast = test system: BT-549 breast
MOLT-4 leukemia = test system: MOLT-4 leukemia
OVCAR-5 ovarian = test system: OVCAR-5 ovarian
EKVX NSCLC = test system: EKVX NSCLC
HL-60(TB) leukemia = test system: HL-60(TB) leukemia
786-0 renal = test system: 786-0 renal
SNB-75 CNS = test system: SNB-75 CNS
SK-OV-3 ovarian = test system: SK-OV-3 ovarian
KM12 colon = test system: KM12 colon
CAKI-1 renal = test system: CAKI-1 renal
SK-MEL-28 melanoma = test system: SK-MEL-28 melanoma
SNB-19 CNS = test system: SNB-19 CNS
SK-MEL-5 melanoma = test system: SK-MEL-5 melanoma
HT29 colon = test system: HT29 colon
NCI/ADR-RES ovarian = test system: NCI/ADR-RES ovarian
SK-MEL-2 melanoma = test system: SK-MEL-2 melanoma

Row | SMILES | TGI (BT-549 breast) | TGI (MOLT-4 leukemia) | TGI (OVCAR-5 ovarian) | TGI (EKVX NSCLC) | TGI (HL-60(TB) leukemia) | TGI (786-0 renal) | TGI (SNB-75 CNS) | TGI (SK-OV-3 ovarian) | TGI (KM12 colon) | TGI (CAKI-1 renal) | TGI (SK-MEL-28 melanoma) | TGI (SNB-19 CNS) | TGI (SK-MEL-5 melanoma) | TGI (HT29 colon) | TGI (NCI/ADR-RES ovarian) | TGI (SK-MEL-2 melanoma) | GI50 (SNB-75 CNS) | GI50 (SK-MEL-2 melanoma) | GI50 (HL-60(TB) leukemia)
1 | COc1cc([N+](=O)[O-])ccc1NC1=CC(=O)CCC1 | > 100 µM | > 100 µM | > 100 µM | > 100 µM | > 100 µM | > 100 µM | > 100 µM | > 100 µM | > 100 µM | > 100 µM | > 100 µM | > 100 µM | > 100 µM | > 100 µM | > 100 µM | > 100 µM | – | – | –
2 | COC(=O)C1(Cc2ccccc2)Cc2ccc3c(c2C1=O)CCC3 (centres undefined) | > 87.7 µM | 69.5 µM | > 100 µM | > 75.2 µM | > 63.3 µM | > 100 µM | > 100 µM | > 100 µM | > 100 µM | > 100 µM | > 100 µM | > 100 µM | 49.9 µM | > 89.6 µM | > 100 µM | 41.5 µM | – | – | –
3 | Oc1ccc(Cn2c(-c3ccc(O)c(O)c3)nc3ccccc32)cc1O | 51 µM | 12.4 µM | > 100 µM | 75.7 µM | 51.1 µM | 29 µM | 39.4 µM | 59.6 µM | 35 µM | 54.6 µM | 78 µM | 83.4 µM | 50.9 µM | 84.7 µM | > 100 µM | 39 µM | – | – | –
4 | CCOC(=O)CCC(NC(=O)c1ccc(Nc2nc3ccccc3nc2-c2cccs2)cc1)C(=O)OCC (centres undefined) | > 100 µM | > 100 µM | > 100 µM | > 100 µM | > 100 µM | > 100 µM | > 100 µM | > 100 µM | > 100 µM | > 100 µM | > 100 µM | > 100 µM | > 100 µM | > 100 µM | > 100 µM | 94.5 µM | – | – | –
5 | CCOC(=O)CCC(NC(=O)c1ccc(OCc2nc3ccccc3n3cccc23)cc1)C(=O)OCC (centres undefined) | > 100 µM | > 100 µM | > 100 µM | > 100 µM | > 100 µM | > 100 µM | > 100 µM | > 100 µM | > 100 µM | > 100 µM | > 100 µM | > 100 µM | > 100 µM | > 100 µM | > 100 µM | > 100 µM | – | – | –
6 | O=C(NC1=NC2C=CC([N+](=O)[O-])=CC2S1)C(=O)Nn1c(=S)[nH]c2ccccc2c1=O (centres undefined) | > 100 µM | > 100 µM | > 100 µM | > 100 µM | > 100 µM | > 100 µM | > 100 µM | > 100 µM | > 100 µM | > 100 µM | > 100 µM | 72.7 µM | > 100 µM | > 100 µM | > 100 µM | > 100 µM | – | – | –
7 | CC1(C)CN=C(Nc2cccc(C(F)(F)F)c2)S1 | > 100 µM | > 100 µM | > 100 µM | > 100 µM | > 100 µM | > 100 µM | > 100 µM | > 100 µM | > 100 µM | > 100 µM | > 100 µM | > 100 µM | > 100 µM | > 100 µM | > 100 µM | > 100 µM | – | – | –
8 | CC(C)NC(=O)OCCN=C1c2ccccc2CCc2ccccc21 | 28.5 µM | 39.7 µM | 82.9 µM | 81.3 µM | 45.7 µM | > 100 µM | > 100 µM | 85.4 µM | > 100 µM | > 100 µM | 40.3 µM | 66.8 µM | 27.4 µM | 47.6 µM | 99.5 µM | 34.6 µM | – | – | –
9 | O=[N+]([O-])O.[Ga] | > 4640 µM | 2130 µM | 5070 µM | 5620 µM | 1780 µM | > 10000 µM | > 7110 µM | 390 µM | > 10000 µM | > 9820 µM | > 10000 µM | > 10000 µM | 1310 µM | > 7200 µM | > 10000 µM | 3270 µM | 1250 µM | 325 µM | –
10 | CC(C)n1c2c([n+](C)c1/C=C/c1ccccc1)C(=O)c1ccccc1C2=O | 0.667 µM | 0.745 µM | 1.28 µM | 1.25 µM | 1.14 µM | 8.11 µM | 1.48 µM | 1.07 µM | 0.975 µM | 12.4 µM | 1.6 µM | 0.784 µM | 0.252 µM | 2.18 µM | > 100 µM | 0.48 µM | – | – | –
11 | O=c1[nH]nc(Cc2ccc(Cl)cc2)n1/N=C\CC/C=N\n1c(Cc2ccc(Cl)cc2)n[nH]c1=O | > 83.2 µM | > 96.5 µM | > 100 µM | 78.5 µM | > 100 µM | > 53.5 µM | 23.1 µM | > 100 µM | > 100 µM | > 100 µM | 96.9 µM | > 92.8 µM | > 100 µM | > 100 µM | > 66.3 µM | > 69.7 µM | – | – | –
12 | Cn1c2ccccc2c(=NNc2ccccc2C(=O)O)c2ccccc21 | 61 µM | > 100 µM | 85 µM | 38 µM | 44.5 µM | > 100 µM | 67 µM | 71.1 µM | 42.2 µM | 91.2 µM | 57.5 µM | > 100 µM | 28 µM | 38.1 µM | 60.8 µM | 43.7 µM | – | – | –
13 | COc1ccc(/C=C/C(=O)N[C@@H]2C(=O)N3[C@@H]2SC(C)(C)[C@@H]3C(=O)O)cc1 | > 100 µM | > 100 µM | > 100 µM | > 100 µM | > 100 µM | > 100 µM | > 100 µM | > 100 µM | > 100 µM | > 100 µM | > 100 µM | > 100 µM | > 100 µM | > 100 µM | > 100 µM | > 100 µM | – | – | –
14 | O=C(OC(=C(c1ccccc1)c1ccccc1)N1CCCC1=S)C(c1ccccc1)c1ccccc1 | > 10 µM | > 10 µM | > 10 µM | > 10 µM | > 10 µM | > 10 µM | > 10 µM | > 10 µM | > 10 µM | > 10 µM | > 10 µM | > 10 µM | > 10 µM | > 10 µM | > 10 µM | > 10 µM | – | – | –
15 | Oc1c(C2=N[C@H]3CCCC[C@@H]3N2)ccc2ccccc12 | > 100 µM | > 100 µM | > 100 µM | > 100 µM | > 100 µM | > 100 µM | > 100 µM | > 100 µM | > 100 µM | > 100 µM | > 100 µM | > 96.4 µM | > 100 µM | > 100 µM | > 93.9 µM | > 100 µM | – | – | –
16 | OC1CN2CCS[C@H]2C(O)C1O (some centres undefined) | > 100 µM | > 100 µM | > 100 µM | > 100 µM | > 100 µM | > 100 µM | > 100 µM | > 100 µM | > 100 µM | > 100 µM | > 100 µM | > 100 µM | > 100 µM | > 100 µM | > 100 µM | > 100 µM | – | – | –
17 | CN(C)c1ccc(/C=C(\NC(=O)c2ccccc2)C(=O)NC(CCC(=O)O)C(=O)O)cc1 (centres undefined) | > 100 µM | > 100 µM | > 100 µM | > 100 µM | > 100 µM | > 100 µM | > 100 µM | > 100 µM | > 100 µM | > 100 µM | > 100 µM | > 100 µM | > 100 µM | > 100 µM | > 100 µM | > 100 µM | – | – | –
18 | N#CC1=C(N)OC(c2ccc([N+](=O)[O-])cc2)C1(C#N)C#N (centres undefined) | 33.1 µM | 63.3 µM | 41.8 µM | 39.6 µM | 7.84 µM | 25 µM | 44.6 µM | > 100 µM | > 48.4 µM | 13 µM | 26.9 µM | > 53.2 µM | 31.9 µM | 22.9 µM | 51.7 µM | 23 µM | – | – | –
19 | NS(=O)(=O)c1ccc(CNc2nc(-c3cccs3)nc3ccc(I)cc23)cc1 | 27.8 µM | 81.8 µM | 44.4 µM | 29.3 µM | > 100 µM | 37.6 µM | 47.1 µM | 52.6 µM | 23.7 µM | 22.8 µM | 40.2 µM | 39.7 µM | 27 µM | 39.2 µM | 77.6 µM | 32.9 µM | – | 17.8 µM | 29.9 µM
20 | CN(C)c1nc(-c2ccccc2)c(C(=O)c2c[nH]c3ccccc23)s1 | > 100 µM | > 82.6 µM | > 100 µM | > 100 µM | 16.5 µM | > 47.6 µM | 7.71 µM | > 100 µM | > 100 µM | > 100 µM | > 100 µM | > 100 µM | > 100 µM | > 100 µM | > 100 µM | > 100 µM | – | – | –
21 | O=C(c1cccnc1)N1N=C(c2ccc(Cl)cc2)CC1(O)c1cc(F)c(Cl)cc1Cl (centres undefined) | 69.1 µM | > 100 µM | > 100 µM | 76.5 µM | 47.9 µM | 53.8 µM | 37.3 µM | > 100 µM | > 100 µM | > 100 µM | 91.7 µM | > 100 µM | 24.2 µM | 75.8 µM | > 100 µM | 75.2 µM | – | – | –
22 | COc1ccc2c(c1)N=C1CSC(c3cc([N+](=O)[O-])ccc3Cl)N1C2 (centres undefined) | 80.7 µM | 77.8 µM | 68.2 µM | 47.1 µM | 55.7 µM | 89.3 µM | 47.5 µM | 65.1 µM | 46.3 µM | 66.8 µM | 83.7 µM | > 100 µM | > 100 µM | 68.4 µM | 74.1 µM | 51.1 µM | – | – | –
23 | c1ccc(/N=N/Nc2ccc(-c3nc4ccccc4[nH]3)cc2)nc1 | > 100 µM | 25.4 µM | 84.1 µM | 52.8 µM | > 100 µM | 27.5 µM | 40.5 µM | 27.9 µM | 30.7 µM | 61.3 µM | 38.7 µM | 44 µM | > 100 µM | 45.2 µM | > 100 µM | 62.5 µM | – | – | –
24 | NCCCN1CCN(CC(=O)O)CCN(CCCN)CCN(CC(=O)O)CC1 | > 100 µM | > 100 µM | > 93.8 µM | > 100 µM | > 100 µM | > 85.3 µM | > 100 µM | > 100 µM | > 100 µM | > 100 µM | > 100 µM | > 100 µM | 21.3 µM | > 100 µM | > 100 µM | > 76.1 µM | – | – | –
25 | COc1cc2c(c3c1c(=O)c1ccccc1n3C)C=CC1(CCCCC1)O2 | > 8.59 µM | > 10 µM | > 10 µM | > 10 µM | > 10 µM | > 10 µM | 8.46 µM | > 10 µM | > 2.21 µM | > 2.29 µM | > 10 µM | > 10 µM | > 6.15 µM | > 10 µM | > 10 µM | 9.69 µM | – | – | –
